Results reported in patent publication US8492427B2, “Isoindolones derivatives as MEK kinase inhibitors and methods of use” (Genentech, Inc., priority 2008, dated 2013).
pEC50, pIC50: −log10 of the molar value.

Tests used:
[1] = test system: A375 human malignant melanoma; assay: Cell Proliferation Assay, A375; assay type: cell-based; conditions: A-375, A375 cell line, 72 h, CellTiter-Glo
Experimental: (§1) Compounds are tested in a cell proliferation assay using the following cell lines:
(§2) Both cell lines are maintained in DMEM/F12 (1:1) media (Gibco) supplemented with 10% FCS at 37° C. in a 5% CO2 humidified incubator.
(§3) Cells are seeded in 96-well plates at 2,000 cells/well and after 24 hours they are exposed to different concentrations of compounds in 0.83% DMSO. Cells are grown for a further 72 h, and an equal volume of CellTiter-Glo reagent (Promega) is added to each well. This lyses the cells and generates a luminescent signal proportional to the amount of ATP released (and therefore proportional to the number of cells in the well) that can be detected using a multi-well luminometer.
(§4) The EC50 is defined as the concentration at which a given compound achieves 50% inhibition of control. IC50 values are calculated using the XLfit software package (version 2.0.5).

[2] = test system: HCT116 human colorectal carcinoma; assay: Cell Proliferation Assay, HCT116; assay type: cell-based; conditions: HCT-116, HCT116 cell line, 72 h, CellTiter-Glo
Experimental: as §1, §2, §3, §4

[3] = target: constitutively activated human mutant MEK1 (Homo sapiens, UniProt Q02750); assay: MEK Assay (MEK Activity Assay); assay type: biochemical; conditions: 15 nM MEK1, 50 μM ATP, GST-ERK1 substrate, 30 minutes, HTRF; read-out: IC50 in the MEK activity assay of Example 1
Chain of constitutively activated human mutant MEK1 (Q02750 whole entry S218D/S222D, form open): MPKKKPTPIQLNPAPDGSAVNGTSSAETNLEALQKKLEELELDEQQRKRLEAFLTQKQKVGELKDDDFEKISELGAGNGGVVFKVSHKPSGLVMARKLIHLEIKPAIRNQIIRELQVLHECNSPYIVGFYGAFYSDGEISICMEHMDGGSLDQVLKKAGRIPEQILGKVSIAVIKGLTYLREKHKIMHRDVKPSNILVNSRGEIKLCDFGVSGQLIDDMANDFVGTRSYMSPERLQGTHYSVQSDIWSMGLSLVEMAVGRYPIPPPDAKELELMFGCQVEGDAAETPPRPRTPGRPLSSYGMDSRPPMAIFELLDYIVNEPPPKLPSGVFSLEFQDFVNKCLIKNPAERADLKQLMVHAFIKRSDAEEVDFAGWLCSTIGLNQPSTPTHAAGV
Experimental: Constitutively activated human mutant MEK1 expressed in insect cells is used as source of enzymatic activity at a final concentration in the kinase assay of 15 nM.
The assay is carried out for 30 minutes in the presence of 50 μM ATP using recombinant GST-ERK1 produced in E. Coli as substrate. Phosphorylation of the substrate is detected and quantified using HTRF reagents supplied by Cisbio. These consist of an anti-GST antibody conjugated to allophycocyanin (XL665) and an anti-phospho (Thr202/Tyr204) ERK antibody conjugated to europium-cryptate. These are used at a final concentration of 4 μg/ml and 0.84 μg/ml respectively. The anti-phospho antibody recognises ERK1 dually phosphorylated on Thr202 and Tyr204. When both antibodies are bound to ERK1 (i.e. when the substrate is phosphorylated), energy transfer from the cryptate to the allophycocyanin occurs following excitation at 340 nm, resulting in fluorescence being emitted that is proportional to the amount of phosphorylated substrate produced. Fluorescence is detected using a multiwell fluorimeter.
Compounds are diluted in DMSO prior to addition to assay buffer and the final DMSO concentration in the assay is 1%.
The IC50 is defined as the concentration at which a given compound achieves 50% inhibition of control. IC50 values are calculated using the XLfit software package (version 2.0.5).

[4] = test system: phospho-ERK in HCT116 cell line; assay: Phospho-ERK Cell-Based Assay, HCT116; conditions: Homo sapiens, HCT-116, exposure 2 h or 24 h
Experimental: Compounds are tested in a cell-based phospho-ERK ELISA using the following cell lines:
as §2
Cells are seeded in 96-well plates at 2,000 cells/well and after 24 h they are exposed to different concentrations of compounds in 0.83% DMSO. Cells are grown for a further 2 h or 24 h, fixed with formaldehyde (2% final) and permeabilised with methanol. Following blocking with TBST-3% BSA, fixed cells are incubated with primary antibody (anti-phospho ERK from rabbit) over-night at 4° C. Cells are incubated with Propidium Iodide (DNA fluorescent dye) and detection of cellular p-ERK is performed using an anti-rabbit secondary antibody conjugated to the fluorescent Alexa Fluor 488 dye (Molecular probes). The fluorescence is analysed using the Acumen Explorer (TTP Labtech), a laser-scanning microplate cytometer, and the Alexa Fluor 488 signal is normalised to the PI signal (proportional to cell number).
The EC50 is defined as the concentration at which a given compound achieves a signal half way between the baseline and the maximum response. EC50 values are calculated using the XLfit software package (version 2.0.5).

pEC50 [1]: > 6.30
pEC50 [2]: > 6.30
pIC50 [3]: > 7.00
pEC50 [4]: > 6.30
Compound: O=C1NCc2cc(C(=O)NOCCO)c(Nc3ccc(I)cc3F)cc21 [Example 5, 6-(2-Fluoro-4-iodo-phenylamino)-1-oxo-2,3-dihydro-1H-isoindole-5-carboxylic acid (2-hydroxy-ethoxy)-amide]
